Experimental findings from paper PMC4408175, “Functional and structural diversity in GH62 α-L-arabinofuranosidases from the thermophilic fungus Scytalidium thermophilum” (Microbial Biotechnology, 2014) are described below.

SMILES strings stand for the structures.

The target of this experiment is T1, Abf62C (Mycothermus thermophilus, UniProt A0A059U759).
T1 construct: gene AXH62C; N-terminal His tag, pET15b LIC, E. coli BL21(DE3) Gold; monomer
As to the kind of experiment: X-ray crystal structure of complex, […] Å. Format: binding. The following applies: co-crystals, 2 mM preincubation, 20 mM xylotriose in reservoir, 22 °C; active site subsites +2NR, +1, +2R; no calcium.

T1 sequence (A0A059U759 entry or part of it): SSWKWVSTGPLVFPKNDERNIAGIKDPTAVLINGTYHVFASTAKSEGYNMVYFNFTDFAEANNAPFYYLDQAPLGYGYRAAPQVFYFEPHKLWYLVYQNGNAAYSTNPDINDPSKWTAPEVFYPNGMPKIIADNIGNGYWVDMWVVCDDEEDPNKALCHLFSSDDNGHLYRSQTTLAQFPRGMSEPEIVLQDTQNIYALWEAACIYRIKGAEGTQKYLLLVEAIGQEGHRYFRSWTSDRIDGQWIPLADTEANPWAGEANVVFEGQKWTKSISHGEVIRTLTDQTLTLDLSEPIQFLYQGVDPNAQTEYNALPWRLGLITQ

As to `OC1OC[C@@H](O[C@@H]2OC[C@@H](O[C@@H]3OC[C@@H](O)[C@H](O)[C@H]3O)[C@H](O)[C@H]2O)[C@H](O)[C@H]1O` (stereo partly shown) [xylotriose], the “X-ray crystal structure of complex, 1.48 Å” value was “Abf62C-xylotriose complex have been deposited in the Research Co-laboratory for Structural Bioinformatics Protein Data Bank”.
